Measurements: PubChem BioAssay AID1259407 (Chemical Carcinogenesis Research Information System (CCRIS), 2018)
Active and inactive are the calls of the source. How the calls were made is not given here.

Test system: CCRIS mutagenicity, Ames/micronucleus/aberration tests
Assay: CCRIS mutagenicity studies
[1] = Test System: AMES SALMONELLA TYPHIMURIUM, Strain/Indicator: TA98, Metabolic Activation: NONE, Method: PREINCUBATION
[2] = Test System: AMES SALMONELLA TYPHIMURIUM, Strain/Indicator: TA100, Metabolic Activation: NONE, Method: PREINCUBATION
[3] = Test System: AMES SALMONELLA TYPHIMURIUM, Strain/Indicator: TA100, Metabolic Activation: RAT, LIVER, S-9, PCB, Method: PREINCUBATION
[4] = Test System: AMES SALMONELLA TYPHIMURIUM, Strain/Indicator: TA98, Metabolic Activation: NONE, Method: STANDARD PLATE
[5] = Test System: AMES SALMONELLA TYPHIMURIUM, Strain/Indicator: TA100, Metabolic Activation: NONE, Method: STANDARD PLATE
[6] = Test System: AMES SALMONELLA TYPHIMURIUM, Strain/Indicator: TA100, Metabolic Activation: RAT, LIVER, S-9, AROCLOR 1254, Method: STANDARD PLATE
[7] = Test System: AMES SALMONELLA TYPHIMURIUM, Strain/Indicator: TA98, Metabolic Activation: RAT, LIVER, S-9, PHENOBARBITAL, Method: STANDARD PLATE
[8] = Test System: AMES SALMONELLA TYPHIMURIUM, Strain/Indicator: TA100, Metabolic Activation: RAT, LIVER, S-9, PHENOBARBITAL, Method: STANDARD PLATE

Question: Which results are given for COc1cc(C)cc2c(O)c(-c3c(C)cc4c(O)ccc(O)c4c3OC)cc(O)c12?
Answer: mutagenic call [1]: inactive; negative; mutagenic call (Test System: AMES SALMONELLA TYPHIMURIUM, Strain/Indicator: TA98, Metabolic Activation: RAT, LIVER, S-9, AROCLOR 1254, Method: PREINCUBATION): inactive; negative; mutagenic call [2]: inactive; negative; mutagenic call (Test System: AMES SALMONELLA TYPHIMURIUM, Strain/Indicator: TA100, Metabolic Activation: RAT, LIVER, S-9, AROCLOR 1254, Method: PREINCUBATION): inactive; negative

Question: Which results are given for Nc1nc(-c2cccc([N+](=O)[O-])c2)nc2c1ncn2[C@@H]1O[C@H](CO)[C@@H](O)[C@H]1O?
Answer: mutagenic call [1]: inactive; negative; mutagenic call (Test System: AMES SALMONELLA TYPHIMURIUM, Strain/Indicator: TA98, Metabolic Activation: RAT, LIVER, S-9, PCB, Method: PREINCUBATION): inactive; negative; mutagenic call [2]: active; positive; mutagenic call [3]: active; positive

Question: Which results are given for O[C@H]1[C@@H]2O[C@@H]2c2c(ccc3ccc4ccccc4c23)[C@@H]1O?
Answer: mutagenic call (Test System: E. COLI, Strain/Indicator: CL101P, Metabolic Activation: NONE, Method: PREINCUBATION): active; positive; mutagenic call (Test System: E. COLI, Strain/Indicator: CL102P, Metabolic Activation: NONE, Method: PREINCUBATION): active; positive; mutagenic call (Test System: E. COLI, Strain/Indicator: CL103P, Metabolic Activation: NONE, Method: PREINCUBATION): active; positive; mutagenic call (Test System: E. COLI, Strain/Indicator: CL104P, Metabolic Activation: NONE, Method: PREINCUBATION): active; positive; mutagenic call (Test System: E. COLI, Strain/Indicator: CL105P, Metabolic Activation: NONE, Method: PREINCUBATION): active; positive; mutagenic call (Test System: E. COLI, Strain/Indicator: CL106P, Metabolic Activation: NONE, Method: PREINCUBATION): active; positive

Question: Which mutagenic call (Test System: AMES SALMONELLA TYPHIMURIUM, Strain/Indicator: TA97, Metabolic Activation: NONE, Method: STANDARD PLATE) does the source give for CC1=CC(=O)c2nc(C)c3c([nH]c4ccccc43)c2C1=O here?
Answer: active; positive

Question: And the mutagenic call (Test System: AMES SALMONELLA TYPHIMURIUM, Strain/Indicator: TA97, Metabolic Activation: RAT, LIVER, S-9, AROCLOR 1254, Method: STANDARD PLATE)?
Answer: active; positive

Question: What about the mutagenic call [4] of the same compound?
Answer: active; positive

Question: What about the mutagenic call (Test System: AMES SALMONELLA TYPHIMURIUM, Strain/Indicator: TA98, Metabolic Activation: RAT, LIVER, S-9, AROCLOR 1254, Method: STANDARD PLATE) of the same compound?
Answer: active; positive

Question: What about the mutagenic call [5] of the same compound?
Answer: active; positive

Question: And the mutagenic call [6]?
Answer: inactive; negative

Question: And the mutagenic call (Test System: AMES SALMONELLA TYPHIMURIUM, Strain/Indicator: TA102, Metabolic Activation: NONE, Method: STANDARD PLATE)?
Answer: inactive; negative

Question: What about the mutagenic call (Test System: AMES SALMONELLA TYPHIMURIUM, Strain/Indicator: TA102, Metabolic Activation: RAT, LIVER, S-9, AROCLOR 1254, Method: STANDARD PLATE) of the same compound?
Answer: inactive; negative

Question: Which results are given for COc1ccc(O)c2c(=O)c3c(OC)cc4c(c3oc12)C1CCOC1O4 (centres undefined)?
Answer: mutagenic call [7]: inactive; negative; mutagenic call [8]: inactive; negative

Question: For O[C@H]1C=Cc2c(ccc3cc4c(cc23)[C@H](O)[C@@H](O)c2ccccc2-4)[C@@H]1O, which mutagenic call [6] is on record?
Answer: inactive; negative

Question: Which results are given for C[C@@H](CN=[N+]=[N-])c1ccccc1?
Answer: mutagenic call [2]: inactive; negative; mutagenic call [3]: active; positive

Question: For C[C@]12CC[C@@H]3c4ccc(O)cc4CC[C@H]3C13CCC2(O)CC3, which mutagenic call (End Point: IN VITRO CHROMOSOMAL ABERRATIONS, Test System: HUMAN PERIPHERAL LYMPHOCYTES, Metabolic Activation: NONE) is on record?
Answer: inactive; negative at 20-24 hr; positive (high doses) at 48 hr

Question: What about the mutagenic call (End Point: IN VITRO CHROMOSOMAL ABERRATIONS, Test System: HUMAN PERIPHERAL LYMPHOCYTES, Metabolic Activation: RAT, LIVER, S-9, AROCLOR 1254) of the same compound?
Answer: inactive; negative

Question: How did the mutagenic call (Test System: AMES SALMONELLA TYPHIMURIUM, Strain/Indicator: TA98(1,8-DNP6), Metabolic Activation: NONE) turn out when O=[N+]([O-])c1ccc2ccc3c4ccccc4nc4ccc1c2c43 was run?
Answer: active; positive

Question: What about the mutagenic call (Test System: AMES SALMONELLA TYPHIMURIUM, Strain/Indicator: TA98(NR), Metabolic Activation: NONE) of the same compound?
Answer: active; positive

Question: What about the mutagenic call (Test System: AMES SALMONELLA TYPHIMURIUM, Strain/Indicator: TA98, Metabolic Activation: NONE) of the same compound?
Answer: active; positive

Question: Which results are given for CC/C=C\C#N?
Answer: mutagenic call (Test System: MOUSE LYMPHOMA, Strain/Indicator: L5178Y (TK+/TK-), Metabolic Activation: NONE, Method: SUSPENSION/PLATE): active; positive. reevaluation of results: positive; mutagenic call (Test System: Mouse lymphoma, Strain/Indicator: L5178Y (tk+/tk-), Metabolic Activation: Rat, Liver, S-9, Aroclor 1254, Method: Suspension/plate): active; positive

Question: Which results are given for Nc1cc2[nH]c3ccccc3c2cc1[N+](=O)[O-]?
Answer: mutagenic call [4]: inactive; negative; mutagenic call [7]: active; positive; mutagenic call [5]: inactive; negative; mutagenic call [8]: active; positive; mutagenic call (Test System: AMES SALMONELLA TYPHIMURIUM, Strain/Indicator: TA1537, Metabolic Activation: NONE, Method: STANDARD PLATE): inactive; negative; mutagenic call (Test System: AMES SALMONELLA TYPHIMURIUM, Strain/Indicator: TA1537, Metabolic Activation: RAT, LIVER, S-9, PHENOBARBITAL, Method: STANDARD PLATE): active; positive; mutagenic call (Test System: AMES SALMONELLA TYPHIMURIUM, Strain/Indicator: TA1538, Metabolic Activation: NONE, Method: STANDARD PLATE): inactive; negative; mutagenic call (Test System: AMES SALMONELLA TYPHIMURIUM, Strain/Indicator: TA1538, Metabolic Activation: RAT, LIVER, S-9, PHENOBARBITAL, Method: STANDARD PLATE): active; positive; mutagenic call (Test System: AMES SALMONELLA TYPHIMURIUM, Strain/Indicator: TA1977, Metabolic Activation: NONE, Method: STANDARD PLATE): inactive; negative; mutagenic call (Test System: AMES SALMONELLA TYPHIMURIUM, Strain/Indicator: TA1977, Metabolic Activation: RAT, LIVER, S-9, PHENOBARBITAL, Method: STANDARD PLATE): inactive; negative
